Laboratory results: patent US9670142B2, “1,3-diaminocyclopentane carboxamide derivatives” (Merck Patent GmbH, priority 2013, dated 2017)

Biological target: human fatty acid synthase FASN (Homo sapiens (Human), UniProt P49327)
Experiment: Biochemical activity testing of human fatty acid synthase FASN (NADPH fluorescence intensity enzyme assay)
Settings: human recombinant full-length fatty acid synthase
Procedure, shortened: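 In-house Sf9-expressed full-length enzyme (3 μL of 40 nM) in 50 mM potassium phosphate pH 7.0 with glutathione, BSA and Tween-20, plus NADPH (2 μL of 200 μM), preincubated ≥15 min with compound (10 concentrations from 30 μM final, 1% DMSO). Acetyl-CoA/malonyl-CoA added; NADPH fluorescence (ex 340/em 460 nm) read before and after 30 min at room temperature, difference used for IC50.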

Sequence of human fatty acid synthase FASN (P49327 whole entry): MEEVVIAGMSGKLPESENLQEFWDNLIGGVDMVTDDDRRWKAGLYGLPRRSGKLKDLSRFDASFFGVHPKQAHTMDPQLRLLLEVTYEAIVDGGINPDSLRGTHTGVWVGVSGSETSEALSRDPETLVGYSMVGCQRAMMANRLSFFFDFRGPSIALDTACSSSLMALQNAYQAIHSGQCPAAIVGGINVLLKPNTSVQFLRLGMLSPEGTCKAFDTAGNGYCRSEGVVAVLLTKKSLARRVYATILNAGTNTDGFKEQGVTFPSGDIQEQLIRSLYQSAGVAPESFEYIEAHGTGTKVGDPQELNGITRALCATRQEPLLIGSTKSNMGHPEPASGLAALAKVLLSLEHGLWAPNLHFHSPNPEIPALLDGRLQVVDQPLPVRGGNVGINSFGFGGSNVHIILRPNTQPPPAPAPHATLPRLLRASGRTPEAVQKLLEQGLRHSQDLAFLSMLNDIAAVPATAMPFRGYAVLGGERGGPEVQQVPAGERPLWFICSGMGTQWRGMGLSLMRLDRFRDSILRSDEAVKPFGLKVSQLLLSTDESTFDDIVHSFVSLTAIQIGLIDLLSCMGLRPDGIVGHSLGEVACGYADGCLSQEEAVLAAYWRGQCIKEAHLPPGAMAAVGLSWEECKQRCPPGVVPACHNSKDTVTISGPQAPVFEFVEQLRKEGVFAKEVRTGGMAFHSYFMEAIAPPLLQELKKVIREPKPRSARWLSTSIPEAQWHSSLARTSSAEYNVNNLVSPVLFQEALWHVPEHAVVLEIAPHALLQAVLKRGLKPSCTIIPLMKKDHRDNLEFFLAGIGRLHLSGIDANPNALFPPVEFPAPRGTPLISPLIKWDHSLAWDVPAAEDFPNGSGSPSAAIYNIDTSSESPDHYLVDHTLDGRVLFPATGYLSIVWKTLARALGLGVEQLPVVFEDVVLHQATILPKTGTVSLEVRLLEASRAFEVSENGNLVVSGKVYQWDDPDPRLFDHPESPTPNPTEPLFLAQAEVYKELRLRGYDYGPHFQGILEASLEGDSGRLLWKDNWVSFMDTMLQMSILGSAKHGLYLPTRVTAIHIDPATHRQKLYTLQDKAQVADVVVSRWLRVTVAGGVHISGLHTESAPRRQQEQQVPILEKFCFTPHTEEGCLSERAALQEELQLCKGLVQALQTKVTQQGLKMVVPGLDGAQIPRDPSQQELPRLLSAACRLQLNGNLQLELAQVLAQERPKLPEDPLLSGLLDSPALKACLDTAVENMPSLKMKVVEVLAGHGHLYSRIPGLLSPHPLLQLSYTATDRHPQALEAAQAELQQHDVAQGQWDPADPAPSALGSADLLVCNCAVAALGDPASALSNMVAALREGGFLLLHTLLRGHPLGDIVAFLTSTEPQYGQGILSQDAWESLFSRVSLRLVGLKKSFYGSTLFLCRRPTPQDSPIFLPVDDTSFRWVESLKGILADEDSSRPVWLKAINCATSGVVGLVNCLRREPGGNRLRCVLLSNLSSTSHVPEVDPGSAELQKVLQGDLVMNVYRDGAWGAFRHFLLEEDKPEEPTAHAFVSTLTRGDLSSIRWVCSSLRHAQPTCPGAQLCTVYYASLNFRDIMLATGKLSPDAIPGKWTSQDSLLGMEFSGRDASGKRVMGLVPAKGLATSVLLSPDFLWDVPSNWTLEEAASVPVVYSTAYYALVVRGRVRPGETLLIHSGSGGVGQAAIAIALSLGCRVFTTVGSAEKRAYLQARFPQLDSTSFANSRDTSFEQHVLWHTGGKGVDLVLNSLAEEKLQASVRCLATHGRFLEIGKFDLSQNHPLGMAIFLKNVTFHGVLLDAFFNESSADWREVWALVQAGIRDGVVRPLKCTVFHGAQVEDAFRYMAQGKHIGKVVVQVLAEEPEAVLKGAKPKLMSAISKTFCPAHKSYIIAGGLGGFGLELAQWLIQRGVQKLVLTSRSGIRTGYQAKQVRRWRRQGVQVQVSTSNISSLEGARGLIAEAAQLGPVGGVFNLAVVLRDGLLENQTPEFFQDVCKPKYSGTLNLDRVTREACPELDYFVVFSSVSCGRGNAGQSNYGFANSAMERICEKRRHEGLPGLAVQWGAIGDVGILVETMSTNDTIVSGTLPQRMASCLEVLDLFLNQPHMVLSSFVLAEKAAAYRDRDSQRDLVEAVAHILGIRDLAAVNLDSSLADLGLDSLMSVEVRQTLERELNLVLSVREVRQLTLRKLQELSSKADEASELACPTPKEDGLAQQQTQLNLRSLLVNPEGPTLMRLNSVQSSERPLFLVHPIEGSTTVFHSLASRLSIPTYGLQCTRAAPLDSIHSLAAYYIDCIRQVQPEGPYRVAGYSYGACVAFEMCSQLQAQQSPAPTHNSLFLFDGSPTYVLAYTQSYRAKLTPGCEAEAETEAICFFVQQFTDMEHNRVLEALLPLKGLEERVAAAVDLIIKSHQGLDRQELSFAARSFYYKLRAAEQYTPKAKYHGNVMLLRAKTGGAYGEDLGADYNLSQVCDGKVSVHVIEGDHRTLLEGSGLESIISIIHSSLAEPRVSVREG

SMILES | IC50
CCCC1CCC(c2ccc(-c3ccc(C(=O)N(C)[C@@H]4CC[C@H](NC(=O)CC)C4)cc3)cc2)OC1 (stereo partly drawn) [Compound A89, 4′-(5-propyl-tetrahydro-pyran-2-yl)-biphenyl-4-carboxylic acid methyl-((1R,3S)-3-propionylamino-cyclopentyl)-amide] | 300 to 3000 nM
CCC(=O)N[C@H]1CC[C@@H](N(C)C(=O)c2ccc(-c3ccc4[nH]nnc4c3)cc2)C1 [Compound A91, 4-(1H-benzotriazol-5-yl)-N-methyl-N-((1R,3S)-3-propionylamino-cyclopentyl)-benzamide] | < 300 nM
CCC(=O)N[C@H]1CC[C@@H](N(C)C(=O)c2ccc(-c3ccc4[nH]c(=O)[nH]c4c3)cc2)C1 [Compound A93, N-methyl-4-(2-oxo-2,3-dihydro-1H-benzimidazol-5-yl)-N-((1R,3S)-3-propionylamino-cyclopentyl)-benzamide] | < 300 nM
CCC(=O)N[C@H]1CC[C@@H](N(C)C(=O)c2ccc(-c3ccc4c(c3)CC(=O)N4)cc2)C1 [Compound A94, N-methyl-4-(2-oxo-2,3-dihydro-1H-indol-5-yl)-N-((1R,3S)-3-propionylamino-cyclopentyl)-benzamide] | < 300 nM
CCC(=O)N[C@H]1CC[C@@H](N(C)C(=O)c2ccc(-c3ccc(C(C)C)cc3)cc2)C1 [Compound A96, 4′-isopropyl-biphenyl-4-carboxylic acid methyl-((1R,3S)-3-propionylamino-cyclopentyl)-amide] | 300 to 3000 nM
CCC(=O)N[C@H]1CC[C@@H](N(C)C(=O)c2ccc(-c3ccc4[nH]cc(C#N)c4c3)cc2)C1 [Compound A99a, 4-(3-cyano-1H-indol-5-yl)-N-methyl-N-((1R,3S)-3-propionylamino-cyclopentyl)-benzamide] | < 300 nM
CCC(=O)N[C@H]1CC[C@@H](N(C)C(=O)c2ccc(-c3ccc4[nH]nc(C)c4c3)cc2)C1 [Compound A100, N-methyl-4-(3-methyl-1H-indazol-5-yl)-N-((1R,3S)-3-propionylamino-cyclopentyl)-benzamide] | < 300 nM
CCC(=O)N[C@H]1CC[C@@H](N(C)C(=O)c2ccc(-c3cc4cn[nH]c4cc3C)cn2)C1 [Compound A103, 5-(6-methyl-1H-indazol-5-yl)-pyridine-2-carboxylic acid methyl-((1R,3S)-3-propionylamino-cyclopentyl)-amide] | 300 to 3000 nM
CCC(=O)N[C@H]1CC[C@@H](N(C)C(=O)c2ccc(-c3cc(C)c4[nH]ncc4c3)cn2)C1 [Compound A104, 5-(7-methyl-1H-indazol-5-yl)-pyridine-2-carboxylic acid methyl-((1R,3S)-3-propionylamino-cyclopentyl)-amide] | < 300 nM
CCC(=O)N[C@H]1CC[C@@H](N(C)C(=O)c2ccc(-c3ccc4[nH]nc(C)c4c3)cn2)C1 [Compound A105, 5-(3-methyl-1H-indazol-5-yl)-pyridine-2-carboxylic acid methyl-((1R,3S)-3-propionylamino-cyclopentyl)-amide] | < 300 nM
CCC(=O)N[C@H]1CC[C@@H](N(C)C(=O)c2ccc(-c3ccc4[nH]ccc4c3)cn2)C1 [Compound A109, 5-(1H-indol-5-yl)-pyridine-2-carboxylic acid methyl-((1R,3S)-3-propionylamino-cyclopentyl)-amide] | < 300 nM

Results, then the compound that gave them:

IC50 | SMILES
< 300 nM | CCC(=O)N[C@H]1CC[C@@H](N(C)C(=O)c2ccc(-c3ccc(C)cc3C)cc2)C1 [Compound A90, 2′,4′-dimethyl-biphenyl-4-carboxylic acid methyl-((1R,3S)-3-propionylamino-cyclopentyl)-amide]
< 300 nM | CCC(=O)N[C@H]1CC[C@@H](N(C)C(=O)c2ccc(-c3ccc(Cl)cc3F)cc2)C1 [Compound A92, 4′-chloro-2′-fluoro-biphenyl-4-carboxylic acid methyl-((1R,3S)-3-propionylamino-cyclopentyl)-amide]
< 300 nM | CCC(=O)N[C@H]1CC[C@@H](N(C)C(=O)c2ccc(-c3ccc4[nH]ccc4c3)cc2)C1 [Compound A95, 4-(1H-indol-5-yl)-N-methyl-N-((1R,3S)-3-propionylamino-cyclopentyl)-benzamide]
< 300 nM | CCC(=O)N[C@H]1CC[C@@H](N(C)C(=O)c2ccc(-c3ccc(C(=O)OC)cc3F)cc2)C1 [Compound A97, 2-fluoro-4′-[methyl-((1R,3S)-3-propionylamino-cyclopentyl)-carbamoyl]-biphenyl-4-carboxylic acid methyl ester]
< 300 nM | CCC(=O)N[C@H]1CC[C@@H](N(C)C(=O)c2ccc(-c3ccc(OC(F)(F)F)c(F)c3)cc2)C1 [Compound A98, 3′-fluoro-4′-trifluoromethoxy-biphenyl-4-carboxylic acid methyl-((1R,3S)-3-propionylamino-cyclopentyl)-amide]
< 300 nM | CCC(=O)N[C@H]1CC[C@@H](N(C)C(=O)c2ccc(-c3ccc(OC)cc3F)cc2)C1 [Compound A99, 2′-fluoro-4′-methoxy-biphenyl-4-carboxylic acid methyl-((1R,3S)-3-propionylamino-cyclopentyl)-amide]
< 300 nM | CCC(=O)N[C@H]1CC[C@@H](N(C)C(=O)c2ccc(-c3ccc4[nH]ccc4c3)c(C)c2)C1 [Compound A101, 4-(1H-indol-5-yl)-3,N-dimethyl-N-((1R,3S)-3-propionylamino-cyclopentyl)-benzamide]
< 300 nM | CCC(=O)N[C@H]1CC[C@@H](N(C)C(=O)c2ccc(-c3cc4cn[nH]c4cc3C)cc2)C1 [Compound A102, N-methyl-4-(6-methyl-1H-indazol-5-yl)-N-((1R,3S)-3-propionylamino-cyclopentyl)-benzamide]
< 300 nM | CCC(=O)N[C@H]1CC[C@@H](N(C)C(=O)c2ccc(-c3ccc4[nH]ccc4c3)cc2F)C1 [Compound A106, 2-fluoro-4-(1H-indol-5-yl)-N-methyl-N-((1R,3S)-3-propionylamino-cyclopentyl)-benzamide]
< 300 nM | CCC(=O)N[C@H]1CC[C@@H](N(C)C(=O)c2ccc(-c3cc(C)c4[nH]ncc4c3)cc2)C1 [Compound A107, N-methyl-4-(7-methyl-1H-indazol-5-yl)-N-((1R,3S)-3-propionylamino-cyclopentyl)-benzamide]
< 300 nM | CCC(=O)N[C@H]1CC[C@@H](N(C)C(=O)c2ccc(-c3ccc4c(ccn4C)c3)c(F)c2)C1 [Compound A108, 3-fluoro-N-methyl-4-(1-methyl-1H-indol-5-yl)-N-((1R,3S)-3-propionylamino-cyclopentyl)-benzamide]
< 300 nM | CCC(=O)N[C@H]1CC[C@@H](N(C)C(=O)c2ccc(-c3ccc4c(ccn4C)c3)cn2)C1 [Compound A110, 5-(1-methyl-1H-indol-5-yl)-pyridine-2-carboxylic acid methyl-((1R,3S)-3-propionylamino-cyclopentyl)-amide]
< 300 nM | CCC(=O)N[C@H]1CC[C@@H](N(C)C(=O)c2ccc(-c3ccc4c(ccn4C)c3)cc2F)C1 [Compound A111, 2-fluoro-N-methyl-4-(1-methyl-1H-indol-5-yl)-N-((1R,3S)-3-propionylamino-cyclopentyl)-benzamide]
< 300 nM | CCC(=O)N[C@H]1CC[C@@H](N(C)C(=O)c2ccc(-c3ccc4[nH]ccc4c3)c(F)c2)C1 [Compound A112, 3-fluoro-4-(1H-indol-5-yl)-N-methyl-N-((1R,3S)-3-propionylamino-cyclopentyl)-benzamide]
